Experimental findings from patent US11746103B2, “ALK-5 inhibitors and uses thereof” (Sumitomo Pharma Oncology, Inc., priority 2020, dated 2023) are described below.

The structures appear in SMILES notation. Where two headings read alike, the source gives them in different places.

For test [1], the target named is ALK-5 (Homo sapiens (Human), UniProt P36897). Briefly: LanthaScreen Eu Kinase Binding Assay, ALK-5. Particulars: for IC50: read-out: Kinase Inhibition: ALK5 IC50. As to the method:
Activity determinations and selectivity were conducted by Thermo Fisher Scientific “SelectScreen™ Biochemical Kinase Profiling Service” using their “LanthaScreen™ Eu Kinase Binding Assay Screening” (www.thermofisher.com/selectscreen). Binding of an Alexa Fluor™ conjugate or “tracer” to a kinase is detected by addition of a Eu-labeled anti-tag antibody. Binding of the tracer and antibody to a kinase results in a high degree of FRET, whereas displacement of the tracer with a kinase inhibitor results in a loss of FRET. This assay is carried out by mixing the compound tested with the reagents and reading, no development step is required. Life Technologies' Kinase Tracers are based on ATP-competitive kinase inhibitors, making them suitable for detection of any compounds that bind to the ATP site. Inhibitors that bind the ATP site include both Type I kinase inhibitors, which bind solely to the ATP site, and Type II inhibitors (e.g., Gleevec®/Imatinib, Sorafenib, BIRB-796), which bind to both the ATP site and a second site often referred to as the allosteric site. […] For 10 point titrations, 3-fold serial dilutions are conducted from the starting concentration (see Table 2 below). [table] All Kinase/Antibody Mixtures are diluted to a 2× working concentration in the specified kinase buffer. The 4× AlexaFluor labeled Tracer is prepared in Kinase Buffer. Bar-coded, low volume, white 384-well plate (Greiner Cat. #784207) […] 2. 3.84 μL—Kinase Buffer […] 4. 4.0 μL—4× Tracer 5. 30-second plate shake 6. 60-minute incubation at room temperature 7. […] The LanthaScreen Eu Kinase Binding Assay data is analyzed using the equations in Table 3 for each set of data points. [table] Data generated were plotted using the graphing software XLfit from IDBS. The dose response curve is curve fit to model number 205.

Test [2] concerns TGF-beta induced SMAD signaling. Briefly: RDSR (RD SMAD reporter) Cellular Reporter Assay. Format: cell-based. To be noted: Homo sapiens. An excerpt:
TGF-β signaling is triggered when the activated TGF-β homodimer binds to the TGF-β receptor 2, which in turn leads to the recruitment and phosphorylation of TGF-β receptor 1 (ALK5). Activated TGF-β receptor 1 phosphorylates the signal transduction molecules SMAD2 and SMAD3. These bind to common mediator SMAD4 and translocate to the nucleus where they bind to short conserved DNA sequences called the SMAD binding element and induce the transcription of various target genes. […] Certain example compounds were also or alternatively assayed using the RDSR Cellular Reporter Assay. Overview and Design: The RD SMAD reporter (RDSR) cell line was generated by stabily integrating the SMAD cellular reporter plasmid (Promega, pGL4.48[luc2P/SBE/Hygro]) into the human rhabdomyosarcoma cell line RD (ATCC, CCL-136). Once SMAD signaling is triggered, with, for example, the addition of TGF-β 1, receptor activated SMADs bind the SMAD binding elements (SBEs) leading to the expression of intracellular luciferase. To determine the potency of compounds at inhibiting TGF-beta induced SMAD signaling, the RDSR reporter system was utilized. The rhabdomyosarcoma line RD (ATCC, CCL-136) was transfected with a SMAD reporter vector (Promega, E3671) and a polyclonal stable cell line was selected using hygromycin B. The transfected vector contains three copies of a SMAD-binding element (SBE) that drive transcription of the luciferase reporter gene luc2P (Photinus pyralis). luc2P is a synthetically-derived luciferase sequence with humanized codon optimization that is designed for high expression and reduced anomalous transcription. The luc2P gene contains hPEST, a protein destabilization sequence, which allows luc2P protein levels to respond more quickly than those of luc2 to induction of transcription. The intracellular luciferase is quantified by the addition of equal volume (100 μl) of ONE-GLO substrate (Promega, E6120) and read within ten minutes on the Envision plate reader. The stable RDSR cell line was tested by evaluating the response to human TGF-β1 (R&D Systems, 7754-BH-005) as well as human myostatin (R&D Systems, 788-G8-010/CF) in a concentration dependent manner after twenty-four hours of stimulation. […] For compound evaluation, the tool drugs Galunisertib and Vactosertib were included as positive controls. The tool drugs and the compounds of the invention being tested were all incubated with cells for one hour at 37° C. before stimulation with 200 pg/ml rhTGF-beta1 for twenty-four hours. The activity of the reporter was determined with the addition of ONE-GLO (Promega) substrate and luminescence counts collected on the Envision plate reader (Perkin Elmer). […] The activity of compounds of the invention as determined using this method are reported in the third column of Table 1, below.

Setting [3] is: 200 pg/ml rhTGF-beta1, 24 h, read-out: RD-SMAD reporter activity.

ALK-5, sequence (P36897 34-503): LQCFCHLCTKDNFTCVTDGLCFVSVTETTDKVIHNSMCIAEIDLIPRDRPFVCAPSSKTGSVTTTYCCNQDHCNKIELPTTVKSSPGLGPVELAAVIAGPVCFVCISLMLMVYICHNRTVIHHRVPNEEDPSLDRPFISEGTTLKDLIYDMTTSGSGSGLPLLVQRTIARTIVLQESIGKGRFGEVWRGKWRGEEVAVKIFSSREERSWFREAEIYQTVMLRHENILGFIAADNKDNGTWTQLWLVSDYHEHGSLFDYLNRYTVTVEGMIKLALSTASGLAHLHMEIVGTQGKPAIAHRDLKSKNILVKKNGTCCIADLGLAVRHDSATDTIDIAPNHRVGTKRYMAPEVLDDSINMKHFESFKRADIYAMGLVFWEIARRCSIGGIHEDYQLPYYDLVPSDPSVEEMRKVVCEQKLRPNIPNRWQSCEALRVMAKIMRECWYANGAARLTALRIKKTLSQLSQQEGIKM

In the case of `Cc1nnc2c(C)cccc2c1Nc1ccnc(Nc2ccc(N3CCOCC3)cc2)n1` [EX-52, N4-(3,8-dimethylcinnolin-4-yl)-N2-(4-morpholinophenyl)pyrimidine-2,4-diamine], the “Kinase Selectivity: ALK2 IC50/ ALK5 IC50” value in test [1] is “(+) (≤10=[+])”. Moreover, the IC50 in test [1] was less than 0.01 µM; in test [2] (setting [3]), 100 to 1000 nM.
In the same order, the values of `Cc1cccc2c(Nc3nc(Nc4ccc(N5CCNCC5)cc4)ncc3F)cnnc12` [EX-09, 5-fluoro-N4-(8-methyl-cinnolin-4-yl)-N2-(4-(piperazin-1-yl)phenyl)pyrimidine-2,4-diamine] are “(+) (≤10=[+])”, 0.01 to 0.1 µM and 100 to 1000 nM.
With `Cc1c(F)ccc2c(Nc3ccnc(Nc4ccc(N5CCNCC5)cc4)n3)cnnc12` [EX-02, N4-(7-fluoro-8-methylcinnolin-4-yl)-N2-(4-(piperazin-1-yl)phenyl)-pyrimidine-2,4-diamine], the “Kinase Selectivity: ALK2 IC50/ ALK5 IC50” value in test [1] was “(++) (10<ALK2/ALK5<100=[++])”. The figures for the IC50 in test [1] and in test [2] (setting [3]) were less than 0.01 µM and less than 100 nM, respectively.
On the same counts, the results for `Cc1cccc2c(Nc3ccnc(Nc4cccc(CN5CCN(C)CC5)c4)n3)cnnc12` [EX-04, N4-(8-methyl-cinnolin-4-yl)-N2-(3-((4-methyl-piperazin-1-yl)methyl)phenyl)pyrimidine-2,4-diamine] are “(+) (≤10=[+])”, less than 0.01 µM and less than 100 nM.
On the same counts, the results for `Cc1cccc2c(Nc3ccnc(Nc4ccc(N5CCN(C)CC5)c(Cl)c4)n3)cnnc12` [EX-34, N2-(3-chloro-4-(4-methyl-piperazin-1-yl)-phenyl)-N4-(8-methylcinnolin-4-yl)pyrimidine-2,4-diamine] are “(++) (10<ALK2/ALK5<100=[++])”, less than 0.01 µM and less than 100 nM.
In the same order, the values of `Cc1cccc2c(Nc3ccnc(Nc4cccc(CN5CCNCC5)c4)n3)cnnc12` [EX-31, N4-(8-methylcinnolin-4-yl)-N2-(3-(piperazin-1-ylmethyl)phenyl)pyrimidine-2,4-diamine] are “(+) (≤10=[+])”, less than 0.01 µM and less than 100 nM.
Regarding `Cc1cccc2c(Nc3ccnc(Nc4ccc(CC5CCNCC5)cc4)n3)cnnc12` [EX-05, N4-(8-methylcinnolin-4-yl)-N2-(4-(piperidin-4-ylmethyl)pheny)pyrimidine-2,4-diamine], the “Kinase Selectivity: ALK2 IC50/ ALK5 IC50” value in test [1] was “(++) (10<ALK2/ALK5<100=[++])”. For the same compound, the IC50 is less than 0.01 µM in test [1] and 100 to 1000 nM in test [2] (setting [3]).
In the same order, the values of `Cc1cccc2c(Nc3nc(Nc4ccc(N5CCN(C)CC5)cc4)ncc3F)cnnc12` [EX-32, 5-fluoro-N4-(8-methylcinnolin-4-yl)-N2-(4-(4-methylpiperazin-1-yl)phenyl)pyrimidine-2,4-diamine] are “(++) (10<ALK2/ALK5<100=[++])”, 0.01 to 0.1 µM and 100 to 1000 nM.
In the same order, the values of `Cc1cccc2c(Nc3ccnc(Nc4ccc(N5CCN(CCO)CC5)cc4)n3)cnnc12` [EX-37, 2-(4-(4-((4-((8-methylcinnolin-4-yl)amino)pyrimidin-2-yl)amino)phenyl)piperazin-1-yl)ethan-1-ol] are “(++) (10<ALK2/ALK5<100=[++])”, less than 0.01 µM and less than 100 nM.
In the same order, the values of `Cc1cccc2c(Nc3ccnc(Nc4ccc(C(C)(C)C)cc4)n3)cnnc12` [EX-54, N2-(4-(tert-butyl)phenyl)-N4-(8-methylcinnolin-4-yl)pyrimidine-2,4-diamine] are “(++) (10<ALK2/ALK5<100=[++])”, 0.01 to 0.1 µM and 100 to 1000 nM.
As for `Cc1cccc2c(Nc3ccnc(Nc4cc(F)cc(CN5CCN(C)CC5)c4)n3)cnnc12` [EX-42, N2-(3-fluoro-5-((4-methylpiperazin-1-yl)methyl)phenyl)-N4-(8-methylcinnolin-4-yl)pyrimidine-2,4-diamine], the “Kinase Selectivity: ALK2 IC50/ ALK5 IC50” value in test [1] was “(+) (≤10=[+])”. Moreover, the IC50 was less than 0.01 µM in test [1] and 100 to 1000 nM in test [2] (setting [3]).
On the same counts, the results for `c1cc(Nc2nccc(Nc3cnnc4c(C5CC5)cccc34)n2)cc(N2CCOCC2)c1` [EX-57, N4-(8-cyclopropylcinnolin-4-yl)-N2-(3-morpholinophenyl)pyrimidine-2,4-diamine] are “(++) (10<ALK2/ALK5<100=[++])”, less than 0.01 µM and less than 100 nM.
In the same order, the values of `Cc1cccc2c(Nc3ccnc(Nc4ccc(CN5CCN(C)CC5)cc4)n3)cnnc12` [EX-26, N4-(8-methylcinnolin-4-yl)-N2-(4-((4-methylpiperazin-1-yl)methyl)phenyl)pyrimidine-2,4-diamine] are “(++) (10<ALK2/ALK5<100=[++])”, less than 0.01 µM and less than 100 nM.
Turning to `Cc1cccc2c(Nc3ccnc(Nc4ccc(N5CC6CC5CN6C)cc4)n3)cnnc12` (stereo not drawn) [EX-45, N2-(4-(5-methyl-2,5-diazabicyclo[2.2.1]heptan-2-yl)phenyl)-N4-(8-methylcinnolin-4-yl)pyrimidine-2,4-diamine], in test [1], the “Kinase Selectivity: ALK2 IC50/ ALK5 IC50” value was “(++) (10<ALK2/ALK5<100=[++])” and the IC50 is less than 0.01 µM. The IC50 in test [2] (setting [3]) is less than 100 nM.
In the same order, the values of `Cc1cccc2c(Nc3ccnc(Nc4cc(F)cc(CN5CCNCC5)c4)n3)cnnc12` [EX-06, N2-(3-fluoro-5-(piperazin-1-ylmethyl)phenyl)-N4-(8-methyl-cinnolin-4-yl)pyrimidine-2,4-diamine] are “(+) (≤10=[+])”, less than 0.01 µM and less than 100 nM.
In the same order, the values of `Cc1cccc2c(Nc3ccnc(Nc4ccc(CN5CCOCC5)cc4)n3)cnnc12` [EX-25, N4-(8-methylcinnolin-4-yl)-N2-(4-(morpholinomethyl)phenyl)pyrimidine-2,4-diamine] are “(++) (10<ALK2/ALK5<100=[++])”, less than 0.01 µM and less than 100 nM.
In the same order, the values of `c1cc(C2CC2)c2nncc(Nc3ccnc(Nc4ccc(N5CCOCC5)cc4)n3)c2c1` [EX-58, N4-(8-cyclopropylcinnolin-4-yl)-N2-(4-morpholinophenyl)pyrimidine-2,4-diamine] are “(++) (10<ALK2/ALK5<100=[++])”, less than 0.01 µM and less than 100 nM.
On to `Cc1cccc2c(Nc3ccnc(Nc4ccc(N5CCNCC5)c(F)c4)n3)cnnc12` [EX-08, N2-(3-fluoro-4-(piperazin-1-yl)phenyl)-N4-(8-methylcinnolin-4-yl)pyrimidine-2,4-diamine], for which, in test [1], the “Kinase Selectivity: ALK2 IC50/ ALK5 IC50” value was “(++) (10<ALK2/ALK5<100=[++])” and the IC50 was less than 0.01 µM. Moreover, the IC50 in test [2] (24 h, read-out: RD-SMAD reporter activity (nM)) is less than 100 nM.
For the compound `Cc1cccc2c(Nc3ccnc(Nc4ccc(C5CCOCC5)cc4)n3)cnnc12` [EX-46, N4-(8-methylcinnolin-4-yl)-N2-(4-(tetrahydro-2H-pyran-4-yl)phenyl)pyrimidine-2,4-diamine], the “Kinase Selectivity: ALK2 IC50/ ALK5 IC50” value in test [1] is “(++) (10<ALK2/ALK5<100=[++])”. The figures for the IC50 in test [1] and in test [2] (setting [3]) were less than 0.01 µM and less than 100 nM, respectively.
